Measured values reported in patent US5861300A, “Antiviral transgenic plants, vectors, cells and methods” (The Cleveland Clinic Foundation, priority 1995, dated 1999).
Blank lines part the entries; values can stand above or below the molecule they belong to.

Legend:
[1] = system: murine 2-5A-dependent RNase (truncated recombinant clone ZB1 and naturally occurring L929 cell enzyme); test: uv covalent crosslinking of 2-5A probe with unlabeled oligonucleotide competitors; format: binding; details: for competition with 2-5A probe for binding to protein: competitor 100 nM, recombinant 74 kDa protein in wheat germ extract, similar profile with L929 cell enzyme; for concentration required to prevent 2-5A probe binding: both proteins (recombinant ZB1 and naturally occurring)
Method: (§1) The synthesis of the 2-5A probe, p(A2'p)2 (br^8 A2'p)2 A[32P]Cp, and its crosslinking to 2-5A-dependent RNase is performed exactly as described. See Nolan-Sorden, N. L. et al., Anal. Biochem., 184:298-304 (1990). Briefly, the 2-5A probe, about 0.7 to 2.5 nM at […], is incubated for about one hour on ice with cell extract prepared as described, Silverman, R. H. and Krause, D., I.R.L. Press, Oxford, England, pp. 149-193 (1987), in the absence or presence of unlabeled oligonucleotide competitors. Covalent crosslinking is done under a uv lamp (308 nm) for one hour on ice and the proteins are separated on SDS/10% polyacrylamide gels. Filter assays for 2-5A binding activity using the 2-5A probe for about one hour on ice, as described in Knight, M. et al., Nature, 288:189-192 (1980).

[2] = system: human 2-5A-dependent RNase (recombinant and HeLa cell); test: as above; format: binding; details: competitor 100 nM; recombinant human enzyme in wheat germ extract; same pattern in HeLa cell extract
Method: as §1

poly(U) = test: ribonuclease assay with 2-5A-cellulose; format: biochemical; details: enzyme made in reticulocyte lysate, bound to 2-5A-cellulose, 30° C.
Method: (§2) Transcription of plasmids with phage RNA polymerases is in the presence of mGppppG as described (Promega) except that reaction mixtures are supplemented with 15% dimethyl sulfoxide and incubations are at about 37° C. for about 90 minutes. RNA is purified through Sephadex G50 spun-columns and ethanol precipitated prior to translation. Protein synthesis was performed, as described (Promega), at about 30° C. for about one hour in micrococcal nuclease-pretreated rabbit reticulocyte lysate or in an extract of wheat germ at about room temperature for about one hour and then at about […] for about 12 hours. Translation reactions contain about 50 μM zinc sulfate. […]
(§3) The ribonuclease assay with 2-5A-cellulose is performed, as described by Silverman, R. H., Anal. Biochem., 144:450-460 (1985). […] The matrix is then incubated with poly(U)-[^32 P]Cp or poly(C)-[^32 P]Cp (both at about 16 μM in nucleotide equivalents) at about 30° C. and the levels of acid-precipitable radioactive RNA are determined by filtration on glass-fiber filters.

poly(C) = test: ribonuclease assay with 2-5A-cellulose; format: biochemical; details: after one hour of incubation; enzyme bound to 2-5A-cellulose
Method: as §2, §3

2-5A probe = test: 2-5A binding activity of nested 3'-deletion clones (filter binding and uv crosslinking); details: expressed in wheat germ extract
Method: The set of nested 3'-deletions of the truncated murine 2-5A-dependent RNase cDNA, ZB1, is generated with exonuclease III/S1 nuclease digestion followed by filling-in with Klenow DNA Polymerase using the "Erase-A-Base"system (Promega).
as §1

32P-2-5A probe = test: 2-5A binding of lysine to asparagine mutants, uv crosslinking, phosphorimager analysis; details: wheat germ translation products; phosphorimager analysis of dried gel
Method: Briefly, the 2-5A probe, about 0.7 to 2.5 nM at 3,0009 Ci/mmole, is incubated for about one hour on ice with cell extract prepared as described, Silverman, R. H. and Krause, D., I.R.L. Press, Oxford, England, pp. 149-193 (1987), in the absence or presence of unlabeled oligonucleotide competitors. Covalent crosslinking is done under a uv lamp (308 nm) for one hour on ice and the proteins are separated on SDS/10% polyacrylamide gels.
The lysines in the truncated murine 2-5A-dependent RNase, clone ZB1, at positions 240 and 274 are mutated, individually and together, to asparagine residues.

Molecule: p3 (A2'p)2 A
competition with 2-5A probe for binding to protein [1]: completely prevents probe binding | concentration that prevents the 2-5A probe from binding ([1]; probe 2.4 nM, either protein (recombinant ZB1 and naturally occurring)): about 20 nM | competition with 2-5A probe for binding to protein [2]: effectively competes

Molecule: p3 I2'pA2'pA
concentration required to prevent 2-5A probe binding ([1]; probe 2.4 nM): about 1.0 μM

Molecule: p3 A2'pA
concentration required to prevent 2-5A probe binding ([1]; probe 2.4 nM): > 10 µM

Molecule: (A2'p)2 A
fold higher concentration than trimer 2-5A required to prevent probe binding ([1]; both proteins): 500 fold | competition with 2-5A probe for binding to protein [1]: fails to interfere with binding | concentration required to prevent 2-5A probe binding ([1]; probe 2.4 nM): 10 µM | competition with 2-5A probe for binding to protein [2]: not prevented

B1: recombinant human 2-5A-dependent RNase: full-length human 2-5A-dependent RNase translated in vitro in reticulocyte lysate (protein, UniProt Q05823 1-741, looked up)
chain: MESRDHNNPQEGPTSSSGRRAAVEDNHLLIKAVQNEDVDLVQQLLEGGANVNFQEEEGGWTPLHNAVQMSREDIVELLLRHGADPVLRKKNGATPFILAAIAGSVKLLKLFLSKGADVNECDFYGFTAFMEAAVYGKVKALKFLYKRGANVNLRRKTKEDQERLRKGGATALMDAAEKGHVEVLKILLDEMGADVNACDNMGRNALIHALLSSDDSDVEAITHLLLDHGADVNVRGERGKTPLILAVEKKHLGLVQRLLEQEHIEINDTDSDGKTALLLAVELKLKKIAELLCKRGASTDCGDLVMTARRNYDHSLVKVLLSHGAKEDFHPPAEDWKPQSSHWGAALKDLHRIYRPMIGKLKFFIDEKYKIADTSEGGIYLGFYEKQEVAVKTFCEGSPRAQREVSCLQSSRENSHLVTFYGSESHRGHLFVCVTLCEQTLEACLDVHRGEDVENEEDEFARNVLSSIFKAVQELHLSCGYTHQDLQPQNILIDSKKAAHLADFDKSIKWAGDPQEVKRDLEDLGRLVLYVVKKGSISFEDLKAQSNEEVVQLSPDEETKDLIHRLFHPGEHVRDCLSDLLGHPFFWTWESRYRTLRNVGNESDIKTRKSESEILRLLQPGPSEHSKSFDKWTTKINECVMKKMNKFYEKRGNFYQNTVGDLLKFIRNLGEHIDEEKHKKMKLKIGDPSLYFQKTFPDLVIYVYTKLQNTEYRKHFPQTHSPNKPQCDGAGGASGLASPGC
modifications: full-length
notes: full-length human 2-5A-dependent RNase translated in vitro in reticulocyte lysate
half-life of poly(U) degradation (poly(U)): about 10 minutes | poly(C) degraded (poly(C)): 20%

2-5A binding activity relative to clone ZB1 (2-5A probe): 1.9%
B2: ZB14: murine 2-5A-dependent RNase deletion mutant, amino acids 1 to 265, one P-loop motif deleted (protein, UniProt Q05921 1-265, looked up, fragment)
chain: METPDYNTPQGGTPSAGSQRTVVEDDSSLIKAVQKGDVVRVQQLLEKGADANACEDTWGWTPLHNAVQAGRVDIVNLLLSHGADPHRRKKNGATPFIIAGIQGDVKLLEILLSCGADVNECDENGFTAFMEAAERGNAEALRFLFAKGANVNLRRQTTKDKRRLKQGGATALMSAAEKGHLEVLRILLNDMKAEVDARDNMGRNALIRTLLNWDCENVEEITSILIQHGADVNVRGERGKTPLIAAVERKHTGLVQMLLSREGIN

2-5A binding activity relative to clone ZB1 (2-5A probe): about 38.3%
B3: ZB13: murine 2-5A-dependent RNase deletion mutant, amino acids 1 to 294 (protein, UniProt Q05921 1-294, looked up, fragment)
chain: METPDYNTPQGGTPSAGSQRTVVEDDSSLIKAVQKGDVVRVQQLLEKGADANACEDTWGWTPLHNAVQAGRVDIVNLLLSHGADPHRRKKNGATPFIIAGIQGDVKLLEILLSCGADVNECDENGFTAFMEAAERGNAEALRFLFAKGANVNLRRQTTKDKRRLKQGGATALMSAAEKGHLEVLRILLNDMKAEVDARDNMGRNALIRTLLNWDCENVEEITSILIQHGADVNVRGERGKTPLIAAVERKHTGLVQMLLSREGINIDARDNEGKTALLIAVDKQLKEIVQLLLE

B4: ZB15: murine 2-5A-dependent RNase deletion mutant, amino acids 1 to 218, both P-loop motifs deleted (protein, UniProt Q05921 1-218, looked up, fragment)
chain: METPDYNTPQGGTPSAGSQRTVVEDDSSLIKAVQKGDVVRVQQLLEKGADANACEDTWGWTPLHNAVQAGRVDIVNLLLSHGADPHRRKKNGATPFIIAGIQGDVKLLEILLSCGADVNECDENGFTAFMEAAERGNAEALRFLFAKGANVNLRRQTTKDKRRLKQGGATALMSAAEKGHLEVLRILLNDMKAEVDARDNMGRNALIRTLLNWDCENV
2-5A binding activity relative to clone ZB1 (2-5A probe): completely lacking in 2-5A binding activity

2-5A binding activity relative to clone ZB1 (control) (32P-2-5A probe): 12.2%
B5: ZB1(Lys^240,274 -)Asn): double mutant of clone ZB1, lysines 240 and 274 replaced by asparagine (protein, UniProt Q05921 1-735, looked up, variant K240N K274N)
2-5A-dependent ribonuclease: METPDYNTPQGGTPSAGSQRTVVEDDSSLIKAVQKGDVVRVQQLLEKGADANACEDTWGWTPLHNAVQAGRVDIVNLLLSHGADPHRRKKNGATPFIIAGIQGDVKLLEILLSCGADVNECDENGFTAFMEAAERGNAEALRFLFAKGANVNLRRQTTKDKRRLKQGGATALMSAAEKGHLEVLRILLNDMKAEVDARDNMGRNALIRTLLNWDCENVEEITSILIQHGADVNVRGERGNTPLIAAVERKHTGLVQMLLSREGINIDARDNEGNTALLIAVDKQLKEIVQLLLEKGADKCDDLVWIARRNHDYHLVKLLLPYVANPDTDPPAGDWSPHSSRWGTALKSLHSMTRPMIGKLKIFIHDDYKIAGTSEGAVYLGIYDNREVAVKVFRENSPRGCKEVSCLRDCGDHSNLVAFYGREDDKGCLYVCVSLCEWTLEEFLRLPREEPVENGEDKFAHSILLSIFEGVQKLHLHGYSHQDLQPQNILIDSKKAVRLADFDQSIRWMGESQMVRRDLEDLGRLVLYVVMKGEIPFETLKTQNDEVLLTMSPDEETKDLIHCLFSPGENVKNCLVDLLGHPFFWTWENRYRTLRNVGNESDIKVRKCKSDLLRLLQHQTLEPPRSFDQWTSKIDKNVMDEMNHFYEKRKKNPYQDTVGDLLKFIRNIGEHINEEKKRGMKEILGDPSRYFQETFPDLVIYIYKKLKETEYRKHFPQPPPRLSVPEAVGPGGIQS

loss of 2-5A binding activity as compared to clone ZB1 (2-5A probe): about 26%
B6: ZB11: murine 2-5A-dependent RNase deletion mutant, amino acid residues 1 to 342 (protein, UniProt Q05921 1-342, looked up, fragment)
chain: METPDYNTPQGGTPSAGSQRTVVEDDSSLIKAVQKGDVVRVQQLLEKGADANACEDTWGWTPLHNAVQAGRVDIVNLLLSHGADPHRRKKNGATPFIIAGIQGDVKLLEILLSCGADVNECDENGFTAFMEAAERGNAEALRFLFAKGANVNLRRQTTKDKRRLKQGGATALMSAAEKGHLEVLRILLNDMKAEVDARDNMGRNALIRTLLNWDCENVEEITSILIQHGADVNVRGERGKTPLIAAVERKHTGLVQMLLSREGINIDARDNEGKTALLIAVDKQLKEIVQLLLEKGADKCDDLVWIARRNHDYHLVKLLLPYVANPDTDPPAGDWSPHSSRW
